PubChem BioAssay AID330 (DTP/NCI, 2004)
“And” between values parts separate entries of the source, which are not always exact repeats. Identical values can stand only once. Inconclusive results and toxic doses are left out.

Test system: P388 leukemia ip, CD2F1 mice, survival T/C
Test: NCI In Vivo Anticancer Drug Screen. Data for tumor model P388 Leukemia (intraperitoneal) in CD2F1 (CDF1) mice
Conditions: endpoint: median survival time, higher = longer survival
Summary of the method: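 Mice carrying the transplanted tumor received test compound or vehicle. Survival was recorded in each group, and the value is the treated-group measurement divided by that of the vehicle-treated control group.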

## O=NN(CCCl)C(=O)NCCCl
dose: 1.0 mg/kg/injection, schedule: Q01DX001 (ip), vehicle: Klucel (hydroxypropylcellulose) (HPC)
  T/C: 122 % of control
dose: 1.0 mg/kg/injection, schedule: Q01DX001 (ip), vehicle: saline with Tween-80
  T/C: 115 % of control
dose: 1.0 mg/kg/injection, schedule: Q01DX001 (ip), vehicle: suspension in saline
  T/C: 107 % of control
dose: 1.0 mg/kg/injection, schedule: Q01DX005 (ip), vehicle: saline + alcohol
  T/C: 112 % of control
dose: 2.0 mg/kg/injection, schedule: Q01DX001 (ip), vehicle: Klucel (hydroxypropylcellulose) (HPC)
  T/C: 112 % of control
dose: 2.0 mg/kg/injection, schedule: Q01DX001 (ip), vehicle: saline with Tween-80
  T/C: 107 % of control
dose: 2.0 mg/kg/injection, schedule: Q01DX001 (ip), vehicle: suspension in saline
  T/C: 117 % of control
dose: 2.0 mg/kg/injection, schedule: Q01DX009 (ip), vehicle: other
  T/C: 163 % of control and 175 % of control
dose: 2.0 mg/kg/injection, schedule: Q01DX009 (ip), vehicle: saline with Tween-80
  T/C: 173 % of control
dose: 2.5 mg/kg/injection, schedule: Q04DX003 (iv), vehicle: saline + alcohol
  T/C: 152 % of control
dose: 3.24 mg/kg/injection, schedule: Q04DX003 (ip), vehicle: saline + alcohol
  T/C: 208 % of control
dose: 3.3 mg/kg/injection, schedule: Q01DX005 (ip), vehicle: Klucel (hydroxypropylcellulose) (HPC)
  T/C: 267 % of control
dose: 3.3 mg/kg/injection, schedule: Q01DX005 (ip), vehicle: saline + alcohol
  T/C: 250 % of control and 265 % of control
dose: 3.3 mg/kg/injection, schedule: Q01DX009 (ip), vehicle: saline + alcohol
  T/C: 183 % of control
dose: 3.75 mg/kg/injection, schedule: Q04DX003 (ip), vehicle: saline
  T/C: 176 % of control
dose: 3.89 mg/kg/injection, schedule: Q04DX003 (ip), vehicle: saline + alcohol
  T/C: 178 % of control
dose: 4.0 mg/kg/injection, schedule: Q01DX001 (ip), vehicle: saline + alcohol
  T/C: 123 % of control
dose: 4.0 mg/kg/injection, schedule: Q01DX005 (ip), vehicle: saline + alcohol
  T/C: 170 % of control
dose: 4.0 mg/kg/injection, schedule: Q01DX009 (ip), vehicle: other
  T/C: 215 % of control and 287 % of control
dose: 4.0 mg/kg/injection, schedule: Q01DX009 (ip), vehicle: saline with Tween-80
  T/C: 262 % of control
dose: 4.4 mg/kg/injection, schedule: Q01DX005 (ip), vehicle: saline + alcohol
  T/C: 222 % of control
dose: 5.0 mg/kg/injection, schedule: Q04DX003 (ip), vehicle: saline + alcohol
  T/C: 206 % of control
dose: 5.0 mg/kg/injection, schedule: Q04DX003 (iv), vehicle: saline + alcohol
  T/C: 177 % of control
dose: 5.4 mg/kg/injection, schedule: Q04DX003 (ip), vehicle: saline + alcohol
  T/C: 185 % of control
dose: 6.48 mg/kg/injection, schedule: Q04DX002 (ip), vehicle: saline + alcohol
  T/C: 163 % of control and 169 % of control
dose: 6.48 mg/kg/injection, schedule: Q04DX003 (ip), vehicle: saline + alcohol
  T/C: 219 % of control
dose: 6.6 mg/kg/injection, schedule: Q01DX005 (ip), vehicle: saline + alcohol
  T/C: 305 % of control
dose: 7.5 mg/kg/injection, schedule: Q01DX001 (iv), vehicle: saline + alcohol
  T/C: 164 % of control
dose: 7.5 mg/kg/injection, schedule: Q04DX003 (ip), vehicle: saline
  T/C: 219 % of control
dose: 8.0 mg/kg/injection, schedule: Q01DX001 (ip), vehicle: Klucel (hydroxypropylcellulose) (HPC)
  T/C: 171 % of control
dose: 8.0 mg/kg/injection, schedule: Q01DX001 (ip), vehicle: suspension in saline
  T/C: 166 % of control
dose: 8.0 mg/kg/injection, schedule: Q01DX001 (ip), vehicle: water
  T/C: 200 % of control
dose: 8.0 mg/kg/injection, schedule: Q01DX005 (ip), vehicle: saline + alcohol
  T/C: 254 % of control
dose: 8.0 mg/kg/injection, schedule: Q01DX009 (ip), vehicle: other
  T/C: 264 % of control and 370 % of control
dose: 8.0 mg/kg/injection, schedule: Q01DX009 (ip), vehicle: saline with Tween-80
  T/C: 297 % of control
dose: 9.0 mg/kg/injection, schedule: Q04DX003 (ip), vehicle: saline + alcohol
  T/C: 180 % of control
dose: 10.0 mg/kg/injection, schedule: Q01DX005 (ip), vehicle: Klucel (hydroxypropylcellulose) (HPC)
  T/C: 123 % of control
dose: 10.0 mg/kg/injection, schedule: Q01DX009 (ip), vehicle: Klucel (hydroxypropylcellulose) (HPC)
  T/C: 98 % of control
dose: 10.0 mg/kg/injection, schedule: Q01DX009 (ip), vehicle: saline
  T/C: 240 % of control
dose: 10.0 mg/kg/injection, schedule: Q04DX003 (ip), vehicle: saline + alcohol
  T/C: 320 % of control
dose: 10.0 mg/kg/injection, schedule: Q04DX003 (iv), vehicle: saline + alcohol
  T/C: 265 % of control
dose: 10.8 mg/kg/injection, schedule: Q04DX002 (ip), vehicle: saline + alcohol
  T/C: 200 % of control and 206 % of control
dose: 10.8 mg/kg/injection, schedule: Q04DX003 (ip), vehicle: saline + alcohol
  T/C: 295 % of control
dose: 12.5 mg/kg/injection, schedule: Q01DX005 (ip), vehicle: saline with Tween-80
  T/C: 275 % of control and 315 % of control
dose: 15.0 mg/kg/injection, schedule: Q01DX001 (iv), vehicle: saline + alcohol
  T/C: 222 % of control
dose: 15.0 mg/kg/injection, schedule: Q01DX009 (ip), vehicle: saline
  T/C: 300 % of control
dose: 15.0 mg/kg/injection, schedule: Q04DX003 (ip), vehicle: saline + alcohol
  T/C: 336 % of control
dose: 15.0 mg/kg/injection, schedule: Q04DX003 (ip), vehicle: saline
  T/C: 355 % of control
dose: 16.0 mg/kg/injection, schedule: Q01DX001 (ip), vehicle: Klucel (hydroxypropylcellulose) (HPC)
  T/C: 210 % of control
dose: 16.0 mg/kg/injection, schedule: Q01DX001 (ip), vehicle: saline with Tween-80
  T/C: 192 % of control and 240 % of control
dose: 16.0 mg/kg/injection, schedule: Q01DX001 (ip), vehicle: suspension in saline
  T/C: 186 % of control
dose: 16.0 mg/kg/injection, schedule: Q01DX001 (ip), vehicle: water
  T/C: 429 % of control
dose: 16.0 mg/kg/injection, schedule: Q01DX001 (oral), vehicle: saline with Tween-80
  T/C: 163 % of control
dose: 16.0 mg/kg/injection, schedule: Q01DX005 (ip), vehicle: saline + alcohol
  T/C: 409 % of control
dose: 16.0 mg/kg/injection, schedule: Q01DX009 (ip), vehicle: other
  T/C: 111 % of control and 120 % of control
dose: 16.0 mg/kg/injection, schedule: Q01DX009 (ip), vehicle: saline with Tween-80
  T/C: 118 % of control
dose: 18.0 mg/kg/injection, schedule: Q04DX002 (ip), vehicle: saline + alcohol
  T/C: 250 % of control and 254 % of control
dose: 18.0 mg/kg/injection, schedule: Q04DX003 (ip), vehicle: saline + alcohol
  T/C: 419 % of control
dose: 20.0 mg/kg/injection, schedule: Q01DX001 (ip), vehicle: Klucel (hydroxypropylcellulose) (HPC)
  T/C: 241 % of control
dose: 20.0 mg/kg/injection, schedule: Q04DX003 (ip), vehicle: saline + alcohol
  T/C: 165 % of control
dose: 20.0 mg/kg/injection, schedule: Q04DX003 (iv), vehicle: saline + alcohol
  T/C: 291 % of control
dose: 24.0 mg/kg/injection, schedule: Q01DX001 (ip), vehicle: saline
  T/C: 230 % of control
dose: 25.0 mg/kg/injection, schedule: Q01DX005 (ip), vehicle: saline with Tween-80
  T/C: 184 % of control
dose: 25.0 mg/kg/injection, schedule: Q04DX003 (ip), vehicle: saline + alcohol
  T/C: 233 % of control
dose: 30.0 mg/kg/injection, schedule: Q01DX001 (iv), vehicle: saline + alcohol
  T/C: 352 % of control
dose: 30.0 mg/kg/injection, schedule: Q01DX009 (ip), vehicle: saline
  T/C: 110 % of control
dose: 30.0 mg/kg/injection, schedule: Q04DX002 (ip), vehicle: saline + alcohol
  T/C: 416 % of control and 441 % of control
dose: 30.0 mg/kg/injection, schedule: Q04DX003 (ip), vehicle: saline + alcohol
  T/C: 166 % of control
dose: 30.0 mg/kg/injection, schedule: Q04DX003 (ip), vehicle: saline
  T/C: 441 % of control
dose: 31.25 mg/kg/injection, schedule: Q01DX001 (ip), vehicle: saline with Tween-80
  T/C: 275 % of control
dose: 32.0 mg/kg/injection, schedule: Q01DX001 (ip), vehicle: Klucel (hydroxypropylcellulose) (HPC)
  T/C: 269 % of control
dose: 32.0 mg/kg/injection, schedule: Q01DX001 (ip), vehicle: saline with Tween-80
  T/C: 272 % of control and 588 % of control
dose: 32.0 mg/kg/injection, schedule: Q01DX001 (ip), vehicle: saline
  T/C: 606 % of control
dose: 32.0 mg/kg/injection, schedule: Q01DX001 (ip), vehicle: suspension in saline
  T/C: 289 % of control
dose: 32.0 mg/kg/injection, schedule: Q01DX001 (ip), vehicle: water
  T/C: 429 % of control
dose: 32.0 mg/kg/injection, schedule: Q01DX001 (oral), vehicle: saline with Tween-80
  T/C: 227 % of control
dose: 40.0 mg/kg/injection, schedule: Q01DX001 (ip), vehicle: Klucel (hydroxypropylcellulose) (HPC)
  T/C: 267 % of control
dose: 62.5 mg/kg/injection, schedule: Q01DX001 (ip), vehicle: saline with Tween-80
  T/C: 275 % of control and 297 % of control
dose: 64.0 mg/kg/injection, schedule: Q01DX001 (ip), vehicle: saline with Tween-80
  T/C: 107 % of control and 58 % of control
dose: 64.0 mg/kg/injection, schedule: Q01DX001 (ip), vehicle: suspension in saline
  T/C: 161 % of control
dose: 64.0 mg/kg/injection, schedule: Q01DX001 (oral), vehicle: saline with Tween-80
  T/C: 118 % of control
dose: 80.0 mg/kg/injection, schedule: Q01DX001 (ip), vehicle: Klucel (hydroxypropylcellulose) (HPC)
  T/C: 267 % of control
dose: 128.0 mg/kg/injection, schedule: Q01DX001 (ip), vehicle: Klucel (hydroxypropylcellulose) (HPC)
  T/C: 98 % of control
dose: 128.0 mg/kg/injection, schedule: Q01DX001 (ip), vehicle: saline with Tween-80
  T/C: 98 % of control and 58 % of control
dose: 128.0 mg/kg/injection, schedule: Q01DX001 (ip), vehicle: suspension in saline
  T/C: 107 % of control
